These results are taken from paper PMC8777805, “Interactions of Nereistoxin and Its Analogs with Vertebrate Nicotinic Acetylcholine Receptors and Molluscan ACh Binding Proteins” (Marine Drugs, 2022).

Data set [1] addresses T1, rat brain α7 nAChR (Rattus norvegicus, UniProt Q05941).
T1 construct: from tissue; host or cells: whole rat brain membranes
Put plainly: [125I]-α-BTX displacement, rat brain membranes. It is filed as binding.

In data set [2] the target is T2, Aplysia californica AChBP (Aplysia californica, UniProt Q8WSF8).
T2 construct: made in house
Kind of data set: [3H]-epibatidine scintillation proximity binding assay, Ac AChBP. The conditions noted are these: for IC50: inhibition of [3H]-epibatidine binding, read-out: IC50 ± SEM, Ac BP. As to the method: (§1) The AChBP proteins were expressed and purified according to Hansen et al.. Determination of compound affinity for an AChBP utilized a modification of the Scintillation Proximity Assay reported previously. Briefly, the AChBP constructs (0.5–1.0 nM final concentration of binding sites) were combined with polyvinyltoluene anti-mouse SPA scintillation beads (0.17 mg/mL final concentration, Perkin Elmer), monoclonal anti-FLAG M2 antibody from mouse 1:8000 dilution (Sigma), and 0.1 M NaPO4 buffer, pH 7.0. This cocktail was distributed to a 96-well plate and incubated with either vehicle (total binding), unknown sample (10 µM final concentration), or a saturating concentration (10 µM) of the known competitive ligand methyllycaconitine to determine the nonspecific binding. The radioligand (±)-[^3H]-epibatidine (Perkin Elmer, 5 nM final concentration) was added to each well with varying the concentrations of competing ligand and allowed to incubate at room temperature for 1 hr. Plates were read on a 1450 MicroBeta TriLux liquid scintillation counter (Wallac) and the output normalized. All measurements were conducted in duplicate a minimum of 3 times. The IC50 values were calculated using GraphPad Prism version 4.02 (GraphPad Software, 2006, San Diego, CA, USA, www.graphpad.com).
(SPA uses beads or plates that emit light when radiolabelled molecules are held near them.)

For data set [3], the target named is T3, Torpedo electric organ muscle type nAChR (Tetronarce californica, UniProt P02710+P02714+P02718).
T3 construct: from tissue; host or cells: Torpedo californica electric organ washed membranes
Kind of data set: [125I]-α-BTX displacement, Torpedo electric organ membranes. It is filed as binding.

Data set [4] addresses T4, A. californica BP Y55W mutant (Aplysia californica, UniProt Q8WSF8, Y72W).
T4 construct: made in house
Kind of data set: [3H]-epibatidine scintillation proximity binding assay, Ac AChBP Y55W mutant. The following applies: inhibition of [3H]-epibatidine binding; read-out: IC50 ± SEM, Ac BP Y55W. The procedure: as §1

Data set [5] has as its target T5, Lymnaea stagnalis AChBP (Lymnaea stagnalis, UniProt P58154).
T5 construct: made in house
Put plainly: [3H]-epibatidine scintillation proximity binding assay, Ls AChBP. The conditions noted are these: inhibition of [3H]-epibatidine binding; read-out: IC50 ± SEM, Ls BP. The procedure:
as §1

In data set [6] the target is T6, rat brain α4β2 nAChRs (Rattus norvegicus, UniProt P09483+P12390).
T6 construct: from tissue; host or cells: whole rat brain membranes
Put plainly: [3H]-cytisine displacement, rat brain membranes. It is filed as binding. As to the method:
Rat brain membranes (100 μg of protein) expressing […] α4β2 nAChRs were incubated with 0.5 nM [^3H]-cytisine in a final volume of 500 µL binding saline for 4 h at 5 °C. […] Ten different concentrations of the experimental compound were usually tested in quadruplicate. Nonspecific binding was measured in the presence of 1 mM (S)-nicotine hydrogen tartrate (Sigma-Aldrich). Data were fitted using GraphPad Prism software (Version 4 GraphPad Software, San Diego, CA, USA) by nonlinear regression analyses to a sigmoidal one-site model with variable slope.

In data set [7] the target is T7, L. stagnalis AChBP C187S mutant (Lymnaea stagnalis, UniProt P58154, C206S).
T7 construct: made in house
Put plainly: [3H]-epibatidine scintillation proximity binding assay, Ls AChBP C187S mutant. The conditions noted are these: for IC50: inhibition of [3H]-epibatidine binding. The procedure:
as §1

The test system of data set [8] is molluscan AChBPs. Kind of data set: Preincubation with toxin before [3H]-epibatidine addition, AChBPs. It counts as binding. The procedure:
as §1

The target in data set [9] is T8, human α4β2 nAChRs expressed in TsA201 cells (Homo sapiens, UniProt P17787+P43681).
T8 construct: expressed in transfected cells; host or cells: TsA201 cells
Kind of data set: FlexStation membrane potential functional assay. It is filed as cell-based. The following applies: for activation (membrane depolarization) of human α4β2 nAChRs: MeNTX up to 300 µM, relative to 5 µM ACh; for inhibition of ACh activation of human α4β2 nAChRs: response to 5 μM acetylcholine. The procedure:
TsA201 cells expressing human α4β2 were maintained in media consisting of Dulbecco’s Modified Eagle medium supplemented with 10% FBS, 100 units/mL penicillin and 100 μg/mL streptomycin, 2 mM L-glutamine, 0.5 mg/mL zeocin, and 0.6 mg/mL geneticin. Cells were grown in 75 cm^2 culture flasks, which were housed in a humidified incubator (Fisher Scientific, Atlanta, GA, USA at 37 °C in an atmosphere of 5% CO2. They were grown to around 80–90% confluence after harvesting with 0.25% trypsin and being split weekly at a subcultivation ratio of between 1:6 and 1:10.
Our experimental protocol was based on the initial study of Fitch et al.. Cells were seeded at a density of roughly 5 × 10^4 to 10^5 cells/well in 96-well flat-bottom black wall culture plates coated with 50 μg /mL poly-D-lysine hydrobromide (Sigma-Aldrich, 70–150 kDa) and grown overnight in 100 μL culture medium. A proprietary membrane potential dye obtained from Molecular Devices (San Diego, CA, USA) was prepared by dissolving one bottle of dye into 30 mL of Hanks Saline (pH = 7.4) containing 20 mM HEPES buffer. The cells were incubated with 100 μL of dye for 30 min at 37 °C prior to the robotically controlled concentration-response experiment. Serial dilutions of a compound for dose-response analysis were prepared in 96-well plates by evaporation of a methanolic stock solution and then reconstituted in the appropriate volume of Hanks saline. Fluid transfer and readings were performed by a FlexStation fluorimeter (Molecular Devices). Excitation and emission wavelengths were set to 530 nm and 565 nm with a cutoff of 550 nm. The first 17 s were used as a basal reading.

On the set-up of data set [10]: method as in earlier work. The following applies: cited from earlier work.
The subject of data set [11] is phencyclidine binding site of Torpedo nAChR ion channel. Kind of data set: [3H]-TCP binding to Torpedo membranes. The conditions noted are these: results not shown. The text has this: We have not yet deciphered the mechanism by which this small molecule can be an nAChR antagonist. […] We did observe that NTX inhibited [^3H]-TCP (radiolabelled analog of phencyclidine) binding to the Torpedo membranes, but this only occurred at NTX concentrations that were ~10X higher than were required to inhibit α-BTX binding (results not shown). Since most competitive antagonists are relatively large rigid molecules, elucidating the molecular mechanism by which NTX, an extremely small molecule, acts as an nAChR antagonist merits further investigation.

Setting [12] is: rat brain membranes, [125I]-α-BTX displacement, mean of n experiments, read-out: IC50 ± SEM, α7.
Where [13] appears, read: [125I]-α-BTX displacement, mean of n experiments, read-out: IC50 ± SEM, Torpedo electric organ.
Setting [14] is: rat brain membranes, [3H]-cytisine displacement, mean of n experiments, read-out: IC50 ± SEM, α4β2.
[15] abbreviates: single [125I]-αBTX displacement experiment.
Where [16] appears, read: single [125I]-αBTX displacement experiment, read-out: α7 IC50 (representative experiment, Figure 6).
Setting [17] is: Torpedo IC50 (single experiment, Figure 7 left), 30 min preincubation before BTX.
Setting [18] is: single [3H]-cytisine displacement experiment.
Where [19] appears, read: single [3H]-cytisine displacement experiment, read-out: α4β2 IC50 (individual experiment, Figure 3).

Where two headings read alike, the source gives them in different places.

A word on the IC50: it is the midpoint of a concentration-inhibition curve. In the case of `CN(C)C1CSCSC1` [DMA-DT, 5-dimethylamino-1,3-dithiane], the IC50 was 640 ± 220 µM in data set [1] (setting [12]); 28 ± 0.27 µM in data set [2]; above 500 µM in data set [3] (setting [13]); 41.4 ± 4.4 µM in data set [4]; 22 ± 2.4 µM in data set [5]; 160 ± 96 µM in [6] (setting [14]).

For `C[N+](C)(C)C1CSSC1` [MeNTX, N-methylnereistoxin], the “affinity of Ls C187S mutant greater than for NTX” value in [7] (MeNTX versus NTX) is on record as ~ 4 fold. The half-maximal inhibitory concentration (IC50) is 41 µM in data set [7]; 45 ± 2.3 µM in data set [1] (setting [12]); 89.4 µM in [1] (setting [16]); 260 ± 71 µM in data set [2]; 11.2 µM in [3] (setting [17]); 9.3 ± 4.9 µM in data set [3] (setting [13]). Also, the IC50 was 74 ± 5.2 µM in data set [4], 163 ± 8.7 µM in [5], 120 ± 13 µM in [6] (setting [14]) and 121 µM in [6] (setting [19]). The “α7 Hillslope (representative experiment, Figure 6)” value in data set [1] (setting [15]) is listed as -1.0. Further, the “affinity of Aplysia californica AChBP less than for NTX” value in data set [2] (MeNTX versus NTX) is listed as ~ 3.5 fold. In addition, the “effect of 24 hr preincubation on inhibition of [3H]-epibatidine binding” value in data set [8] is recorded as “failed to detect any effect”. For the same compound, the “activation (membrane depolarization) of human α4β2 nAChRs” value in [9] is on record as “failed to activate”. Besides, the “inhibition of ACh activation of human α4β2 nAChRs” value in data set [9] is given as “inhibited ACh activation”. For the same compound, in [6] (setting [18]), the “α4β2 Hillslope (individual experiment, Figure 3)” value was -1.5.

For the compound `CN(C)C1CSSC1` [NTX, 4-dimethylamino-1,2-dithiolane, reference compound], the IC50 was 160 µM in data set [7]; 390 ± 8.6 µM in data set [1] (setting [12]); 826 µM in data set [1] (setting [16]); 71 ± 1.9 µM in data set [2]; 254 µM in data set [3] (setting [17]); 230 ± 71 µM in [3] (setting [13]). Further, the concentration for half-maximal inhibition (IC50) came to 110 ± 25 µM in data set [4], 140 ± 24 µM in [5], 60 ± 22 µM in [6] (setting [14]) and 81.6 µM in data set [6] (setting [19]). In addition, the “α7 Hillslope (representative experiment, Figure 6)” value in data set [1] (setting [15]) is -2.6. Moreover, the “effect of 24 hr preincubation on inhibition of [3H]-epibatidine binding” value in data set [8] is reported as “failed to detect any effect”. Also, the “dimethylamino pKa” value in [10] was 7.2. For the same compound, the “activation (membrane depolarization) of human α4β2 nAChRs” value in data set [9] was “no measurable depolarizing activity”. The “inhibition of ACh activation of human α4β2 nAChRs” value in [9] is recorded as “inhibited ACh activation”. Further, in data set [11], the “NTX concentrations inhibiting [3H]-TCP binding, higher than required to inhibit α-BTX binding” value was ~ 10 X. Besides, the “α4β2 Hillslope (individual experiment, Figure 3)” value in data set [6] (setting [18]) was -1.5.

Consider `C[N+](C)(C)C1CSCSC1` [TMA-DT, 5-trimethylamino-1,3-dithiane], for which the 50% inhibitory concentration (IC50) in data set [1] (setting [12]) worked out at 90 ± 4.3 µM; in data set [2] it was 20 ± 2 µM; in [3] (setting [13]), 150 µM; in data set [4] it was 18 ± 2.8 µM; in [5], 3.7 ± 0.39 µM; in data set [6] (setting [14]), 290 ± 60 µM.
